We go through two compounds from BindingDB's records for patent US9675697 (University of Michigan, 2017).

SMILES strings stand for the structures.

The assay concerns the target Bromodomain-containing protein 4 (Homo sapiens, UniProt O60885). Description: FP Competitive Binding Assay (No.350). The note with it: 25 °C. As for the experimental part:
Fluorescence Polarization (FP) competitive binding studies (see above) were carried out using the FAM labeled fluorescent probe Cpd. No. 350 to determine binding affinities of representative compounds to both BD1 and BD2 of BRD2, BRD3, and BRD4 proteins. Equilibrium dissociation constants (Id) values of Cpd. […] Final Cpd. […] Kd values of Cpd.

`COc1cc2c(cc1-c1c(C)noc1C)[nH]c1nc(C)nc(-c3ccc(NC(=O)N4CCN(C)CC4)c4ccccc34)c12` [US9675697, Cpd. No. 316]: the affinity corresponds to a Ki of 2.9 nM.

Turning to `COc1cc2c(cc1-c1c(C)noc1C)[nH]c1nc(C)nc(-c3ccc(NC(=O)N4CCN(C5COC5)CC4)c4ccccc34)c12` [US9675697, Cpd. No. 317], the affinity, expressed as Ki, was 7.1 nM.
